Here are results for one molecule from ChEMBL document CHEMBL1151298, “Plant anticancer agents XXIX. Cleomiscosin A from Simaba multiflora, Soulamea soulameoides, and Matayba arborescens” (1984).

In experiment [1] the test system is P388. The experiment in a line: Cytotoxicity against mouse P388 cells. Format: functional. Particulars: read-out: ED50 (the source's name).
Experiment [2] deals with KB. Put plainly: Cytotoxicity against human KB cells. Format: functional. The settings on record: read-out: ED50 (the source's name).

In brackets after ≈: the same amount, converted by molar mass.

As for `COc1cc([C@H]2Oc3c(OC)cc4ccc(=O)oc4c3O[C@@H]2CO)ccc1O` [CLEOMISCOSIN A], the results for the EC50 in experiment [1] and in experiment [2] were 3.8 µg/mL (≈ 9.84 µM) and 4.9 µg/mL (≈ 12.7 µM), respectively.
